The record followed here is ChEMBL document CHEMBL1201862, “PubChem BioAssay data set” (2004).

What all share (assay type): functional
The target of assay [1] is Protein kinase C theta type (Homo sapiens, UniProt Q04759). Kind of assay: Navigating the Kinome. Panel member name: PRKCQ.
Assay [2] addresses Dual specificity mitogen-activated protein kinase kinase 1 (Homo sapiens, UniProt Q02750). The assay can be described thus: Navigating the Kinome. Panel member name: MAP2K1.
In assay [3] the target is Serine/threonine-protein kinase D3 (Homo sapiens, UniProt O94806).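 Note: determined within a kinase panel screen, with PRKCN as the panel member.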
For the next assay, the target named is Activin receptor type-1 (Homo sapiens, UniProt Q04771). Kind of assay: Navigating the Kinome. Panel member name: ACVR1.
Assay [4] deals with Tyrosine-protein kinase BTK (Homo sapiens, UniProt Q06187).
Assay [5] has as its target Serine/threonine-protein kinase N2 (Homo sapiens, UniProt Q16513).
The target in assay [6] is Homeodomain-interacting protein kinase 2 (Homo sapiens, UniProt Q9H2X6).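 Note: measured within a kinome-wide kinase profiling panel, HIPK2 being one panel member.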
The target of the next assay is Activated CDC42 kinase 1 (Homo sapiens, UniProt Q07912). Kind of assay: Navigating the Kinome. Panel member name: ACK1.
Assay [7] concerns the target Maternal embryonic leucine zipper kinase (Homo sapiens, UniProt Q14680).
In assay [8] the target is Cyclin-dependent kinase 9 (Homo sapiens, UniProt P50750).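 Note: value from the CDK9 entry of a kinome-spanning kinase panel.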
In assay [9] the target is Dual specificity protein kinase CLK4 (Homo sapiens, UniProt Q9HAZ1).
The target of assay [10] is Macrophage-stimulating protein receptor (Homo sapiens, UniProt Q04912). The assay can be described thus: Navigating the Kinome. Panel member name: MST1R.
Assay [11] has as its target Dual specificity mitogen-activated protein kinase kinase 2 (Homo sapiens, UniProt P36507). Kind of assay: Navigating the Kinome. Panel member name: MAP2K2.
Assay [12] concerns the target Mitogen-activated protein kinase 14 (Homo sapiens, UniProt Q16539).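 Note: part of a kinome-wide panel, MAPK14 entry.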
In assay [13] the target is Serine/threonine-protein kinase PLK3 (Homo sapiens, UniProt Q9H4B4).
The target in assay [14] is Serine/threonine-protein kinase PLK4 (Homo sapiens, UniProt O00444).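 Note: PLK4 measured as one member of a kinome-wide kinase profiling panel.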
Assay [15] has as its target MAP kinase-activated protein kinase 2 (Homo sapiens, UniProt P49137).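 Note: measured as one member of a kinome-wide kinase panel.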
Assay [16] concerns the target Casein kinase II subunit alpha (Homo sapiens, UniProt P68400).
Assay [17] concerns the target Tyrosine-protein kinase ITK/TSK (Homo sapiens, UniProt Q08881).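 Note: affinity for ITK measured as one member of a broad kinase panel profiling binding across the kinome.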
The target in another assay is LIM domain kinase 1 (Homo sapiens, UniProt P53667). Kind of assay: Navigating the Kinome. Panel member name: LIMK1.
Assay [18] concerns the target MAP/microtubule affinity-regulating kinase 3 (Homo sapiens, UniProt P27448).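 Note: MARK3 affinity measured as one member of a kinome panel.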
Another assay addresses Insulin receptor (Homo sapiens, UniProt P06213).
Assay [19] deals with Protein kinase C gamma type (Homo sapiens, UniProt P05129).
Assay [20] has as its target MAP kinase-activated protein kinase 3 (Homo sapiens, UniProt Q16644).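 Note: value comes from a kinome-wide profiling panel in which MAPKAPK3 is one of the panel members.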
The target in assay [21] is RAC-alpha serine/threonine-protein kinase (Homo sapiens, UniProt P31749).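 Note: AKT1 affinity measured as one member of a kinome-wide kinase profiling panel.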
In assay [22] the target is Cyclin-dependent kinase 1 (Homo sapiens, UniProt P06493).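 Note: Kinome-wide panel profiling, with the target listed as panel member CDC2.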
In assay [23] the target is 3-phosphoinositide-dependent protein kinase 1 (Homo sapiens, UniProt O15530).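 Note: value comes from the Navigating the Kinome panel, PDPK1 member.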
The target of assay [24] is Fibroblast growth factor receptor 3 (Homo sapiens, UniProt P22607).
Assay [25] addresses Mitogen-activated protein kinase 12 (Homo sapiens, UniProt P53778).
For assay [26], the target named is Serine/threonine-protein kinase MRCK alpha (Homo sapiens, UniProt Q5VT25).

SMILES strings stand for the structures. Activity calls are given as the source filed them.

Sequence of MAP/microtubule affinity-regulating kinase 3 (P27448 whole entry): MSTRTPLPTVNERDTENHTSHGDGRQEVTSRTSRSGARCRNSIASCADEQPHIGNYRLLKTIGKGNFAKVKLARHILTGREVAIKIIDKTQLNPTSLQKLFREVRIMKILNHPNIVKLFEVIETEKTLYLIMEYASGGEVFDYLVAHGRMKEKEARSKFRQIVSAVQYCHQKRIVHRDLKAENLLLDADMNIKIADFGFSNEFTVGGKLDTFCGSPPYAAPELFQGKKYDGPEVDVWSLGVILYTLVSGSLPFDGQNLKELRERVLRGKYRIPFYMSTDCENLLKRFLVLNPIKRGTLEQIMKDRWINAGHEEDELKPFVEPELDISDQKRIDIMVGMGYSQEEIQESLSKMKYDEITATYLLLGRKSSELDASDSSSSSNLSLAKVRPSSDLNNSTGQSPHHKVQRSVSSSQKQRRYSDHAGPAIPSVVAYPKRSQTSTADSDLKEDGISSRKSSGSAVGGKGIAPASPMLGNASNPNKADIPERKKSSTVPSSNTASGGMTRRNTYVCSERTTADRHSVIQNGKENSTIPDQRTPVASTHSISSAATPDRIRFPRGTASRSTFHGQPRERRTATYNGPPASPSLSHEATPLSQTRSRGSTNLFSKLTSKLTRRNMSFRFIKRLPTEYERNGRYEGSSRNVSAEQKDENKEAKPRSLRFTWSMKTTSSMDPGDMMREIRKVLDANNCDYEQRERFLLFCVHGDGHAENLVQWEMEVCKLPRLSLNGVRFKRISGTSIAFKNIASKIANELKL
Sequence of Tyrosine-protein kinase BTK (Q06187 whole entry): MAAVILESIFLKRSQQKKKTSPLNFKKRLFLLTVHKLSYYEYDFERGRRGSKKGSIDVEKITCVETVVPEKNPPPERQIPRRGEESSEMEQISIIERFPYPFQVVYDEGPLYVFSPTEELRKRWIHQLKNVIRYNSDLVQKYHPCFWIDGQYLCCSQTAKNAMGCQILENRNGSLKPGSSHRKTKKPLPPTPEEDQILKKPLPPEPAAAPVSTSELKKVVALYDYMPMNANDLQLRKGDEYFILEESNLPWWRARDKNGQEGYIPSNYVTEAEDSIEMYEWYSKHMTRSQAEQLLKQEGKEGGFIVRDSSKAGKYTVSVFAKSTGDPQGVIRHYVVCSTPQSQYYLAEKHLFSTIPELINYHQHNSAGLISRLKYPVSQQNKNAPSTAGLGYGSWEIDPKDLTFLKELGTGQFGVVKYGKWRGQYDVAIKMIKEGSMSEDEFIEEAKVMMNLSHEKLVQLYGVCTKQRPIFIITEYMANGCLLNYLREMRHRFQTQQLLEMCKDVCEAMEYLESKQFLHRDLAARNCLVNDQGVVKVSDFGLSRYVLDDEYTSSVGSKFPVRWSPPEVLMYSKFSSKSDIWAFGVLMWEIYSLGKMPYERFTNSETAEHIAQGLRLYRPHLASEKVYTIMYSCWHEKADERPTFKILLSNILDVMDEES
Sequence of Tyrosine-protein kinase ITK/TSK (Q08881 whole entry, the tested form may be a part): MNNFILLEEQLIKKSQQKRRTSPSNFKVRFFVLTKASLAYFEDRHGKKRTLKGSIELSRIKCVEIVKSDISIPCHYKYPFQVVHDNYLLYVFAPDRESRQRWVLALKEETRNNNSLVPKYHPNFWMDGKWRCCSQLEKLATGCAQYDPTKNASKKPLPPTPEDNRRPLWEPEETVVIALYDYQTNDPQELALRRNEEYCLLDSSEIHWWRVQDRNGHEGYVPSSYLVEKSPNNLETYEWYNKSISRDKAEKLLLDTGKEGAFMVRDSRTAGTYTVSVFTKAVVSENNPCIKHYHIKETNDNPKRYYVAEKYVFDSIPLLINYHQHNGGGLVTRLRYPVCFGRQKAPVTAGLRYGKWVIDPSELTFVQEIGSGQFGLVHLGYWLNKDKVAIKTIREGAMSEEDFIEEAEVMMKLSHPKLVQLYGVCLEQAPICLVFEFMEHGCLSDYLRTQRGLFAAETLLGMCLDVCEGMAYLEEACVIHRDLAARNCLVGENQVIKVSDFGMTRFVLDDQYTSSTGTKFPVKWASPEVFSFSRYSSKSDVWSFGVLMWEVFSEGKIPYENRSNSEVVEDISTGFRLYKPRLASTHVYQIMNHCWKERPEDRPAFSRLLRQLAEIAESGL
Sequence of Dual specificity protein kinase CLK4 (Q9HAZ1 whole entry): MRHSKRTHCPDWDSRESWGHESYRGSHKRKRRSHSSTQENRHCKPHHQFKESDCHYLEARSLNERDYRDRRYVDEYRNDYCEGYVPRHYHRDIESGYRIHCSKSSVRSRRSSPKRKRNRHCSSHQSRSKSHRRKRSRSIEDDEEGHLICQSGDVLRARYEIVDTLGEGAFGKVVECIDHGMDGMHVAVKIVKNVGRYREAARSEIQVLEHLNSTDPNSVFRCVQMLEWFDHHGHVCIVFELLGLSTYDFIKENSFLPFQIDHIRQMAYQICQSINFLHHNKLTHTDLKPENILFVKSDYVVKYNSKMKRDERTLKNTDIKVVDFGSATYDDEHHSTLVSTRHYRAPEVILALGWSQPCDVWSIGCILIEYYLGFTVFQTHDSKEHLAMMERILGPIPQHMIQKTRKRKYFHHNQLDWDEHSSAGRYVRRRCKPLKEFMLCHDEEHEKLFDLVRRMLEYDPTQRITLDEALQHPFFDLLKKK
Sequence of LIM domain kinase 1 (P53667 whole entry, the tested form may be a part): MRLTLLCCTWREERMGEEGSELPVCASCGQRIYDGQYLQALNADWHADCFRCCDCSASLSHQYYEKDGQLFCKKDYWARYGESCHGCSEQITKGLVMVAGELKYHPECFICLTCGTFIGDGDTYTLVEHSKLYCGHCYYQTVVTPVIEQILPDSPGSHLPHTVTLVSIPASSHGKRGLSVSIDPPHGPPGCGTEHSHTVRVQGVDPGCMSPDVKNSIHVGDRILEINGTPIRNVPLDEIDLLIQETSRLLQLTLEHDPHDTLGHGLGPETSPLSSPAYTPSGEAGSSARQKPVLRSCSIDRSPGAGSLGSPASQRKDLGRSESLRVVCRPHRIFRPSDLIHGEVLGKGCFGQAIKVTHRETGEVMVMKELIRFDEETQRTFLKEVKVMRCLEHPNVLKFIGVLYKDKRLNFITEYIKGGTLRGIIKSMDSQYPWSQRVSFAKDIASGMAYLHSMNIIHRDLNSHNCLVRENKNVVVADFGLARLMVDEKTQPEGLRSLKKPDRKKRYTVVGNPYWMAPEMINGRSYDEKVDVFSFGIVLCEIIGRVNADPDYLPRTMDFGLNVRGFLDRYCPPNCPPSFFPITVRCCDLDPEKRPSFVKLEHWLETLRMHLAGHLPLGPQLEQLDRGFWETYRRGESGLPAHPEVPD
Sequence of Serine/threonine-protein kinase N2 (Q16513 whole entry): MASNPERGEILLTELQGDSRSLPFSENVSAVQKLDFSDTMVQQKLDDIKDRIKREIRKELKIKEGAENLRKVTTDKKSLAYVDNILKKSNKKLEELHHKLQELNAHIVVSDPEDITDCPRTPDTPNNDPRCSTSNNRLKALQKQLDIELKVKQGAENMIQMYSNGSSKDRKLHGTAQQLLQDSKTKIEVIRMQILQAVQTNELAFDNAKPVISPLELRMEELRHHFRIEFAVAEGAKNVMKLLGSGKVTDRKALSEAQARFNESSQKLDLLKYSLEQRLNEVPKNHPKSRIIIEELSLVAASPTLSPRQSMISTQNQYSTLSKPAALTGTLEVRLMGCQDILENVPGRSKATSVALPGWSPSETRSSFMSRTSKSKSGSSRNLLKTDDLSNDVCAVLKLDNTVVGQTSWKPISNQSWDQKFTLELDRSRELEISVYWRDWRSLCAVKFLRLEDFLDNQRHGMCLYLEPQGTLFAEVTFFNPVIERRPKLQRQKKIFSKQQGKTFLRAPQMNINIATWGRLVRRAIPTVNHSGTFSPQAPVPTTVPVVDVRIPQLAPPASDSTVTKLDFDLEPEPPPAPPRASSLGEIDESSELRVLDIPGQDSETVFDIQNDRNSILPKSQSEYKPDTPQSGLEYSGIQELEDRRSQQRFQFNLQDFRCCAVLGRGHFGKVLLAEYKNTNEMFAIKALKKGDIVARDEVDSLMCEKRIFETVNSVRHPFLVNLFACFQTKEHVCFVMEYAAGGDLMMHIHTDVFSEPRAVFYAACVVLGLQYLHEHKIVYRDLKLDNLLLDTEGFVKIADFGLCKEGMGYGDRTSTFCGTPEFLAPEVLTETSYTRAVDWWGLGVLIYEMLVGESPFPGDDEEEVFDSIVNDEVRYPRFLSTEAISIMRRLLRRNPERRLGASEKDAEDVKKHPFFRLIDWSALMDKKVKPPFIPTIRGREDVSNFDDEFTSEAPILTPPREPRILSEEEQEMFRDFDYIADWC

With `CN(C)C1CCC(Nc2nc(Cl)cc(-c3c[nH]c4ncccc34)n2)CC1` (stereo not given), the Ki in assay [1] was 7.94 nM (active); in [2], 200 nM (active); in [3], 15.8 nM (active); on Activin receptor type-1, 2.51 µM (active); in [4], > 6.31 µM (inactive); in assay [5], 10 nM (active). In addition, the Ki was 63.1 nM (active) in [6]; > 3.98 µM (inactive) on Activated CDC42 kinase 1; 3.16 nM (active) in assay [7]; 5.01 nM (active) in [8]; 2.51 nM (active) in assay [9]; 79.4 nM (active) in assay [10]. The values for the Ki in assay [11] and in [12] were 316 nM (active) and > 3.98 µM (inactive), respectively.

Consider `NC(COc1cncc(-c2cc3ccncc3s2)c1)Cc1c[nH]c2ccccc12` (stereo not given), for which the Ki was 794 nM (active) in assay [13]; 631 nM (active) in [14]; > 7.94 µM (inactive) in assay [15]; 398 nM (active) in [16]; > 1.58 µM (inactive) in [17]; 794 nM (active) on LIM domain kinase 1. The Ki is 398 nM (active) in assay [18]; > 5.01 µM (inactive) on Insulin receptor; 398 nM (active) in assay [19]; > 10 µM (inactive) in [20]; 12.6 nM (active) in assay [21]; 158 nM (active) in [22]. Also, the Ki in [23] is 251 nM (active); in [24] it was > 2 µM (inactive); in assay [25] it was 2 µM (active); in assay [26] it was 200 nM (active).
